Assay type in all cases: physicochemical
A short description of data set [1]: Drug solubility test (Test Example 1): amount of LOX dissolved in 1 g of additive, visual observation. Here is the method:
The amount of dissolution of loxoprofen sodium (LOX) with respect to 1 g of each additive was determined by visual observation.

Data set [2] in a line: Drug stability test (Test Example 3): loxoprofen sodium in solvent systems, autoclaving at 120° C. To be noted: for Loxoprofen sodium content (%) (vs. initial value): autoclaving 120° C. As to the method: To each solvent was added 0.1 g of loxoprofen sodium, and the mixture was stirred at 25° C. overnight. The stirred mixture was filtrated to obtain a filtrate for use as a sample solution. This sample solution was subjected to an autoclaving treatment at 120° C., and the mass of loxoprofen sodium being present in each solvent system was measured at time 0 (initial value), 2 hrs later, 4 hrs later, and 6 hrs later. The results are shown in FIG. 2 and Table 3 in terms of the ratio of each measurement with respect to the initial value. The measurement procedure was similar to Test Example 2.

Data set [3] is described as follows: Drug stability test (Test Example 4, FIG. 3): loxoprofen/lactic acid with additives, with or without NMP. As to conditions: for stability of LOX (in words): NMP added to LOX. As to the method:
By a similar procedure to Test Example 3 except that 1 g of an additive (aspartic acid, isostearic acid, disodium edetate, a carboxyvinyl polymer or polyvinylpyrrolidone) was added to a mixed solution of 0.1 g of loxoprofen and 5 g of lactic acid, the mass of loxoprofen sodium being present in each solvent system was measured.
In addition, by a similar procedure to Test Example 3 except that 1 g of N-methyl-2-pyrrolidone, and 1 g of an additive (aspartic acid, isostearic acid, disodium edetate, the carboxyvinyl polymer or polyvinylpyrrolidone) were further mixed, the mass of loxoprofen sodium being present in each solvent system was measured. The results are shown in FIG. 3 in terms of the ratio of each measurement with respect to the initial value.

The nature of data set [4]: Drug stability test (Test Example 5, FIG. 4): loxoprofen sodium or felbinac in lactic acid with NMP. As to conditions: 0.1 g drug in 5 g lactic acid with 1 g or 10 g NMP; autoclaving 120° C. Here is the method:
By a similar procedure to Test Example 3 except that either 1 g or 10 g of N-methyl-2-pyrrolidone was further mixed with a mixed solution of 0.1 g of loxoprofen sodium or felbinac and 5 g of lactic acid, the mass of the drug being present in each solvent system was measured.

Data set [5] can be described thus: Drug stability test (Test Example 2): loxoprofen sodium in solvent systems left at 60° C., HPLC. To be noted: for Loxoprofen sodium content (%) (vs. initial value): 60° C. As to the method: To each solvent was added 0.1 g of loxoprofen sodium, and the mixture was stirred at 25° C. overnight. The stirred mixture was filtrated to obtain a filtrate for use as a sample solution, and this sample solution was left to stand at 60° C. Thereafter, the mass of loxoprofen sodium being present in each solvent system was measured with high performance liquid chromatography (HPLC) 0 months later (initial value), 0.5 months later, and 1.0 month later. The results are shown in FIG. 1 and Table 2 in terms of the ratio of each measurement with respect to the initial value.

Data set [6] can be described thus: Drug stability test (Test Example 6, FIG. 5): diclofenac sodium in lactic acid or glycerin with NMP. As to conditions: autoclaving 120° C. Here is the method: By a similar procedure to Test Example 5 except that a mixed solution of 0.1 g of diclofenac sodium and 5 g of lactic acid or glycerin was used, the mass of the drug being present in each solvent system was measured.

Data set [7] can be described thus: Drug stability test (Test Example 7, FIG. 6): tulobuterol in acetic acid with NMP. To be noted: 0.1 g drug in 5 g acetic acid with 1 g or 10 g NMP; autoclaving 120° C. As to the method: By a similar procedure to Test Example 5 except that a mixed solution of 0.1 g of tulobuterol and 5 g of acetic acid was used, the mass of the drug being present in each solvent system was measured.

Each structure is given as a SMILES string.

`CC(C(=O)O)c1ccc(CC2CCCC2=O)cc1` (centres unmarked) [LOX, loxoprofen sodium]: the “amount of dissolution of loxoprofen sodium (in words)” value in data set [1] (lactic acid and N-methyl-2-pyrrolidone used in combination) is recorded as “markedly great”; in data set [1] (lactic acid or N-methyl-2-pyrrolidone used alone, or other composition), “significantly small”. Further, the “Amount of dissolved LOX” value in data set [1] (per 1 g of additive: 10% Citric anhydride + NMP, mixing ratio 1:10) is 0.1 g; in data set [1] (per 1 g of additive: 20% Citric anhydride + NMP, mixing ratio 1:5), 0.1 g; in data set [1] (per 1 g of additive: 89% Phosphoric acid), 0.25 g; in data set [1] (per 1 g of additive: Behenic acid + NMP, mixing ratio 1:1), 0 g; in data set [1] (per 1 g of additive: Cetyl lactate + NMP, mixing ratio 1:4) it was 0 g; in data set [1] (per 1 g of additive: Crotamiton), 0 g. In addition, the “Amount of dissolved LOX” value in data set [1] (per 1 g of additive: Isostearic acid + NMP, mixing ratio 1:1) is recorded as 0 g; in data set [1] (per 1 g of additive: L-menthol + NMP, mixing ratio 1:1), 0 g; in data set [1] (per 1 g of additive: Lactic acid), 0.25 g; in data set [1] (per 1 g of additive: Lactic acid + NMP, mixing ratio 1:2), 1.5 g; in data set [1] (per 1 g of additive: Malic acid + NMP, mixing ratio 1:4), 0 g; in data set [1] (per 1 g of additive: Myristic acid + NMP, mixing ratio 1:10), 0 g. For the same compound, the “Amount of dissolved LOX” value in data set [1] (per 1 g of additive: NMP) stood at 0 g; in data set [1] (per 1 g of additive: Oleyl alcohol), 0 g; in data set [1] (per 1 g of additive: Peppermint oil) it was 0 g; in data set [1] (per 1 g of additive: Phosphoric acid (89%) + NMP, mixing ratio 1:2), 0 g; in data set [1] (per 1 g of additive: Polyethylene glycol 400), 0.25 g; in data set [1] (per 1 g of additive: Stearic acid + NMP, mixing ratio 1:1) it was 0 g. Besides, the “Amount of dissolved LOX” value in data set [1] (per 1 g of additive: Tartaric acid + NMP, mixing ratio 1:2) was 0 g; in data set [1] (per 1 g of additive: Triacetin), 0 g. For the same compound, the “Loxoprofen sodium content (%) (vs. initial value)” value (from here on “Loxoprofen sodium content (%)”) in data set [2] (solvent system Lactic acid 5 g + NMP0.1 g, 2 hrs) worked out at 96.0%; in data set [2] (solvent system Lactic acid 5 g + NMP0.1 g, 4 hrs) it was 90.7%; in data set [2] (solvent system Lactic acid 5 g + NMP0.1 g, 6 hrs), 87.4%; in data set [2] (solvent system Lactic acid 5 g + NMP1.0 g, 2 hrs) it was 98.0%; in data set [2] (solvent system Lactic acid 5 g + NMP1.0 g, 4 hrs) it was 94.2%; in data set [2] (solvent system Lactic acid 5 g + NMP1.0 g, 6 hrs), 91.9%. In addition, the “Loxoprofen sodium content (%)” value in data set [2] (solvent system Lactic acid 5 g + NMP10.0 g, 2 hrs) is 99.4%; in data set [2] (solvent system Lactic acid 5 g + NMP10.0 g, 4 hrs) it was 99.8%; in data set [2] (solvent system Lactic acid 5 g + NMP10.0 g, 6 hrs) it was 99.6%; in data set [2] (solvent system Lactic acid 5 g, 2 hrs), 94.8%; in data set [2] (solvent system Lactic acid 5 g, 4 hrs) it was 90.3%; in data set [2] (solvent system Lactic acid 5 g, 6 hrs), 86.8%. The “Loxoprofen sodium content (%)” value in data set [5] (solvent system Conc. glycerin 5 g, 0.5 months later) was found to be 87.2%; in data set [5] (solvent system Conc. glycerin 5 g, 1.0 month later), 82.4%; in data set [5] (solvent system Lactic acid 5 g + NMP0.1 g, 0.5 months later), 88.2%; in data set [5] (solvent system Lactic acid 5 g + NMP0.1 g, 1.0 month later), 82.7%; in data set [5] (solvent system Lactic acid 5 g + NMP1.0 g, 0.5 months later), 91.3%; in data set [5] (solvent system Lactic acid 5 g + NMP1.0 g, 1.0 month later) it was 85.8%. Besides, the “Loxoprofen sodium content (%)” value in data set [5] (solvent system Lactic acid 5 g + NMP10.0 g, 0.5 months later) came to 99.8%; in data set [5] (solvent system Lactic acid 5 g + NMP10.0 g, 1.0 month later), 99.4%; in data set [5] (solvent system Lactic acid 5 g, 0.5 months later) it was 83.1%; in data set [5] (solvent system Lactic acid 5 g, 1.0 month later) it was 79.9%; in data set [5] (solvent system Peppermint oil 5 g, 0.5 months later) it was 83.2%; in data set [5] (solvent system Peppermint oil 5 g, 1.0 month later) it was 77.7%. The “Loxoprofen sodium content (%)” value in data set [5] (solvent system “Polysorbate 80 g” 5 g, 0.5 months later) was 83.5%; in data set [5] (solvent system “Polysorbate 80 g” 5 g, 1.0 month later), 69.1%. Further, the “time dependent lowering of the content of loxoprofen sodium (in words)” value in data set [2] (solvent system including lactic acid and N-methyl-2-pyrrolidone (Tables 2 to 3, FIGS. 1 to 2)) was “markedly suppressed”; in data set [5] (solvent system of conc. glycerin, “polysorbate 80”, mentha oil or lactic acid) it was “greatly exhibited”. Further, the “stability of LOX (in words)” value was “favorable stability” in data set [3] (lactic acid and adipic acid); “favorable stability” in data set [3] (lactic acid and benzoic acid). Moreover, the “content of LOX versus control group without the additive (FIG. 3)” value in data set [3] (lactic acid 5 g + 1 g additive having a carboxylic acid group (aspartic acid, isostearic acid, disodium edetate, carboxyvinyl polymer), irrespective of the presence of NMP, 120° C.) was “almost a similar level to the LOX content in the control group”. Besides, the “content of LOX versus control group (FIG. 3)” value in data set [3] (lactic acid 5 g + 1 g polyvinylpyrrolidone, irrespective of the presence of NMP, 120° C.) was “increased to a level higher than the content of LOX in the control group”. Moreover, in data set [4], the “stability of the drug (FIG. 4, in words)” value is listed as “significantly improved”.
Take `O=C(O)Cc1ccccc1Nc1c(Cl)cccc1Cl` [diclofenac sodium]: in data set [6] (0.1 g drug in 5 g glycerin with 1 g or 10 g NMP), the “reduction of stability caused by blending glycerin, effect of adding NMP (FIG. 5)” value is on record as “compensated”. The “reduction of stability caused by blending lactic acid, effect of adding NMP (FIG. 5)” value in data set [6] (0.1 g drug in 5 g lactic acid with 1 g or 10 g NMP) is “greatly compensated”.
Take `O=C(O)Cc1ccc(-c2ccccc2)cc1` [felbinac]: the “stability of the drug (FIG. 4, in words)” value in data set [4] is given as “significantly improved”.
With `CC(C)(C)NCC(O)c1ccccc1Cl` (centres unmarked) [tulobuterol], in data set [7], the “stability of the drug (FIG. 6, in words)” value is listed as “greatly improves”.
